Experimental data: the supplement of paper PMC10949913

Columns and labels:
Conditions in all cases: 48 h
CU-ACC2 [1] = assay: AC50 viability; higher = less potent
Method in brief: (§1)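 In 1,536-well plates, 500–1,000 cells/well of three adrenocortical carcinoma cell lines in 5 µL medium received 23 nL of each library compound across 11 concentrations. At 48 h, CellTiter-Glo was incubated for 15 minutes at room temperature and luminescence measured. Per-plate normalisation used vehicle and empty-well controls, and only inhibitory or non-responding curve classes were kept when fitting concentration-response curves for AC50 and area under the curve.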

NCI-H295R [2] = assay: AC50 viability; higher = less potent
Method in brief: as §1

CU-ACC1 = assay: area under concentration-response curve (viability) (AUC (a.u.)); higher = less active
Method in brief: as §1

CU-ACC2 [3] = assay: as above
Method in brief: as §1

NCI-H295R [4] = assay: as above
Method in brief: as §1

Row | SMILES | AC50 viability (CU-ACC2 [1]) | AC50 viability (NCI-H295R [2]) | area under concentration-response curve (CU-ACC1) | area under concentration-response curve (CU-ACC2 [3]) | area under concentration-response curve (NCI-H295R [4])
1 | CC[S+](=O)([O-])N1CC(CC#N)(n2cc(-c3ncnc4[nH]ccc34)cn2)C1 | 20.9 µM | 18.6 µM | 472 | 530 | 513
2 | CC[S+](=O)([O-])Nc1ccc2c(c1)/C(=C(/Nc1ccc(CN3CCCCC3)cc1)c1ccccc1)C(=O)N2 | 3.32 µM | 5.25 µM | 447 | 425 | 408
3 | Clc1ccc(C(Cn2ccnc2)OCc2c(Cl)cccc2Cl)c(Cl)c1 (stereo not given) | 18.6 µM | 20.9 µM | 371 | 525 | 473
4 | CC(=O)O[C@H]1C(=O)[C@]2(C)[C@@H](O)C[C@H]3OC[C@@]3(OC(C)=O)C2[C@H](OC(=O)C4=CC=CC=C4)[C@]5(O)C[C@H](OC(=O)[C@H](O)[C@@H](NC(=O)C6=CC=CC=C6)C7=CC=CC=C7)\C(=C1/C5(C)C)C (stereo not given in full) | 8.33 µM | 0.209 µM | 424 | 473 | 379
5 | Cc1cc(O)c(-c2ccc([C@@H](C)CN)cc2)c2c1[nH]c(=O)c1sccc12 | 0.148 µM | 0.00105 µM | 203 | 223 | 128
6 | Cc1cnc(Nc2ccc(F)cc2Cl)nc1-c1c[nH]c(C(=O)N[C@H](CO)c2cccc(Cl)c2)c1 | 18.6 µM | 26.3 µM | 500 | 572 | 532
7 | COC(=O)[C@@]12OC[C@]34[C@H]([C@@H](O)[C@@H]1O)[C@@]1(C)CC(=O)C(O)=C(C)[C@@H]1C[C@H]3OC(=O)[C@H](OC(=O)/C=C(\C)C(C)C)[C@@H]24 | 0.0417 µM | 0.263 µM | 251 | 280 | 316
8 | Cc1c(O)cccc1C(=O)NC(CSc1ccccc1)C(O)CN1CC2CCCCC2CC1C(=O)NC(C)(C)C (stereo not given) | 20.9 µM | 23.5 µM | 406 | 550 | 561
9 | N#CC(c1ccnc(NCCc2cccnc2)n1)c1nc2ccccc2s1 (stereo not given) | 16.6 µM | 20.9 µM | 509 | 493 | 410
10 | COCCNCc1ccc(-c2cc3nccc(Oc4ccc(NC(=S)NC(=O)Cc5ccc(F)cc5)cc4F)c3s2)nc1 | 7.42 µM | 4.68 µM | 436 | 444 | 388
11 | CN[C@H]1CCC2=CC(=C(OC)C(=C2C/3=C/C=C(OC)\C(=O)/C=C13)OC)OC | 0.468 µM | 0.0934 µM | 478 | 463 | 417
12 | O=C(c1ccc(/C=C/c2n[nH]c3ccccc23)cc1)N1CCNCC1 | 20.9 µM | 0.263 µM | 423 | 391 | 397
13 | CN(C)Cc1ccc([S+](=O)([O-])n2ccc(/C=C/C(=O)NO)c2)cc1 | 9.34 µM | 16.6 µM | 461 | 496 | 465
14 | CC1(COc2ccc3c(c2)ncn3-c2ccc3cccc(N4CCC(N)CC4)c3n2)COC1 | 13.2 µM | 16.6 µM | 545 | 556 | 439
15 | O=C(Nc1cc(Oc2cc(F)c(NC(=O)C3(C(=O)Nc4ccc(F)cc4)CC3)cc2F)ccn1)C1CC1 | 8.33 µM | 10.5 µM | 445 | 504 | 482
16 | COC1=C(OCCCN2CCOCC2)C=C3N=CC=C(OC4=CC=C(C=C4F)\C5=C\N=C(\NC6=CC=C(F)C=C6)N(C)C5=O)C3=C1 | 18.6 µM | 8.33 µM | 474 | 528 | 400
17 | Cc1cc(Nc2cc(N3CCN(C)CC3)nc(Sc3ccc(NC(=O)C4CC4)cc3)n2)[nH]n1 | 20.9 µM | 18.6 µM | 534 | 569 | 459
18 | CN1C(=O)c2sccc2N(C)c2nc(Nc3ccc([S+](N)(=O)[O-])cc3)ncc21 | 14.8 µM | 5.25 µM | 460 | 467 | 431
19 | COc1cccc2c1C(=O)c1c(O)c3c(c(O)c1C2=O)C[C@@](O)(C(=O)CO)C[C@@H]3O[C@H]1C[C@H](N)[C@H](O)[C@H](C)O1 | 5.9 µM | 16.6 µM | 461 | 485 | 452
20 | O=C(Nc1ccc([N+](=O)[O-])cc1Cl)c1cc(Cl)ccc1O | 1.48 µM | 1.48 µM | 411 | 471 | 481
21 | COc1ccc(-c2ccc3ncc4c(c3c2)n(-c2ccc(N3CCNCC3)c(C(F)(F)F)c2)c(=O)n4C)cn1 | 1.86 µM | 1.05 µM | 376 | 385 | 330
22 | CC[P](CC)(CC)=[Au][S][C@@H]1O[C@H](COC(C)=O)[C@@H](OC(C)=O)[C@H](OC(C)=O)[C@H]1OC(C)=O | 1.86 µM | 2.09 µM | 439 | 445 | 400
23 | Cc1ccc(C(=O)Nc2ccc(CN3CCN(C)CC3)c(C(F)(F)F)c2)cc1C#Cc1cnc2[nH]ncc2c1 | 8.33 µM | 8.33 µM | 441 | 427 | 392
24 | CN1CCC(C1CO)C2=C(O)C=C(O)C3=C2O\C(=C/C3=O)C4=CC=CC=C4Cl (stereo not given) | 0.833 µM | 3.32 µM | 431 | 417 | 422
25 | OC1=CC2=C(C(=C1)O)C(=O)\C=C(/O2)C3=CC=CC=C3 | 1.66 µM | 0.263 µM | 397 | 416 | 437
26 | N[S+](=O)([O-])c1cccc2c1C(=O)c1cccc(O)c1C2=O | 0.661 µM | 0.661 µM | 315 | 380 | 370
27 | COc1ccc2[nH]c3c(c2c1)CCN[C@]31CS[C@@H]2c3c(OC(C)=O)c(C)c4c(c3[C@H](COC1=O)N1[C@@H]2[C@H]2c3c(cc(C)c(OC)c3O)C[C@@H]([C@@H]1O)N2C)OCO4 | 0.00762 µM | 0.00762 µM | 178 | 187 | 161

Row | SMILES | AC50 viability (CU-ACC2 [1]) | AC50 viability (NCI-H295R [2]) | area under concentration-response curve (CU-ACC1) | area under concentration-response curve (CU-ACC2 [3]) | area under concentration-response curve (NCI-H295R [4])
28 | CCC[C@@H](C=O)NC(=O)[C@H](CC(C)C)NC(=O)[C@H](CC(C)C)NC(=O)OCc1ccccc1 | 1.48 µM | 1.18 µM | 417 | 438 | 439
29 | N=C(NCCCCCCNC(=N)NC(=N)Nc1ccc(Cl)cc1)NC(=N)Nc1ccc(Cl)cc1 | 23.5 µM | 14.8 µM | 511 | 573 | 443
30 | N[S+](=O)([O-])OC[C@@H]1C[C@@H](n2ccc3c(N[C@H]4CCc5ccccc54)ncnc32)C[C@@H]1O | 0.468 µM | 1.66 µM | 467 | 360 | 468
31 | CCc1nc(C(N)=O)c(Nc2ccc(N3CCC(N4CCN(C)CC4)CC3)c(OC)c2)nc1NC1CCOCC1 | 13.2 µM | 4.17 µM | 533 | 477 | 500
32 | Cc1cc(Nc2ncc(Cl)c(Nc3ccccc3[S+](=O)([O-])C(C)C)n2)c(OC(C)C)cc1C1CCNCC1 | 16.6 µM | 5.9 µM | 439 | 495 | 419
33 | CN1C/C=C/CCOc2cccc(c2)-c2ccnc(n2)Nc2cccc(c2)C1 | 0.0525 µM | 0.235 µM | 208 | 165 | 164
34 | COc1ccc([S+](=O)([O-])N(C(C)=O)c2ccccc2/C=C/c2cc[n+]([O-])cc2)cc1 | 20.9 µM | 5.25 µM | 482 | 557 | 506
35 | C=CC(=O)Nc1cccc(Oc2nc(Nc3ccc(N4CCN(C)CC4)c(F)c3)nc3[nH]ccc23)c1 | 18.6 µM | 20.9 µM | 504 | 557 | 492
36 | CC(=O)O/N=C1/C(=C2\C(=O)Nc3cc(Br)ccc32)Nc2ccccc21 | 9.34 µM | 13.2 µM | 492 | 561 | 525
37 | Cc1ccc(C(=O)OCc2ccc([C@@H](CN)C(=O)Nc3ccc4cnccc4c3)cc2)c(C)c1 | 9.11 µM | 12.9 µM | 507 | 591 | 534
38 | Nc1nc(N)c(N=O)c(OCC2CCCCC2)n1 | 20.9 µM | 9.34 µM | 466 | 492 | 451
39 | CCCCC(C)(C)[C@H](O)/C=C/[C@H]1[C@H](O)CC(=O)[C@@H]1C/C=C\CCCC(=O)O | 0.105 µM | 0.00372 µM | 325 | 307 | 211
40 | C[C@@H](OC[C@@]1(c2ccccc2)CC[C@]2(CCC(=O)N2)CN1)c1cc(C(F)(F)F)cc(C(F)(F)F)c1 | 20.9 µM | 16.6 µM | 550 | 566 | 497
41 | O=C1Nc2cc(Br)ccc2/C1=C1/Nc2ccccc2/C1=N\O | 18.6 µM | 23.5 µM | 480 | 515 | 511
42 | N#Cc1ccc2c(c1)CN([S+](=O)([O-])c1cccs1)[C@H](Cc1ccccc1)CN2Cc1cnc[nH]1 | 0.833 µM | 8.33 µM | 350 | 405 | 485
43 | Cc1ccc(-n2nc(C(C)(C)C)cc2N/C(O)=N/Cc2cc(F)ccc2Oc2ccc3c(cnn3CCO)c2)cc1 | 20.9 µM | 33.2 µM | 518 | 549 | 522
44 | COc1cc2ncn(-c3cc(OCc4ccccc4[S+](C)(=O)[O-])c(C#N)s3)c2cc1OC | 33.2 µM | 37.2 µM | 351 | 399 | 376
45 | N#Cc1cc2cc(CN3CCC(Nc4ncnc5sc(CC(F)(F)F)cc45)CC3)c(O)cc2n1Cc1cn[nH]c1 | 18.6 µM | 18.6 µM | 527 | 565 | 501
46 | CN1CCN(c2ccc(C(=O)Nc3n[nH]c4ccc(Cc5cc(F)cc(F)c5)cc34)c(NC3CCOCC3)c2)CC1 | 5.25 µM | 5.9 µM | 470 | 470 | 434
47 | CC(=O)O[C@@]12CO[C@@H]1C[C@H](O)[C@@]1(C)C(=O)[C@H](O)C3=C(C)[C@@H](OC(=O)[C@H](O)[C@@H](NC(=O)OC(C)(C)C)c4ccccc4)C[C@@](O)([C@@H](OC(=O)c4ccccc4)[C@H]21)C3(C)C | 20.9 µM | 0.417 µM | 302 | 334 | 270
48 | NCC(=O)NC1=CC(=CN=C1)\C2=N\N/3C(=O)\C=C(/N=C3S2)N4CCNCC4 | 0.0934 µM | 0.00417 µM | 269 | 254 | 143
49 | c1ccc2c(-c3cnn4cc(-c5ccc(N6CCNCC6)cc5)cnc34)ccnc2c1 | 2.95 µM | 2.09 µM | 434 | 498 | 439
50 | CC[C@@H]([C@H](C)O)N1\N=C/N(C1=O)C2=CC=C(C=C2)N3CCN(CC3)C4=CC=C(OCC5CO[C@@](C5)(C[N]6C=NC=N6)C7=C(F)C=C(F)C=C7)C=C4 (stereo not given in full) | 7.42 µM | 8.33 µM | 403 | 447 | 423
51 | Cn1c2ccccc2c2c3c(c4c5ccccc5n(CCC#N)c4c21)CNC3=O | 16.6 µM | 14.8 µM | 401 | 535 | 503
52 | C[C@@H]1CC[C@@]2(CC[C@]3(C)\C(=C/C[C@@H]4[C@@]5(C)C[C@@H](O)[C@H](O)[C@@](C)(CO)[C@@H]5CC[C@@]34C)[C@@H]2[C@H]1C)C(O)=O | 1.18 µM | 2.35 µM | 371 | 410 | 354
53 | CN1CCN(Cc2ccc(Nc3ncc(Cl)/c(=N\c4ccccc4[S+](=O)([O-])N(C)C)[nH]3)cc2)CC1 | 0.108 µM | 0.241 µM | 437 | 378 | 364
54 | O=c1[nH]c2ccccc2n1C1CCN(Cc2ccc(-c3nc4cc5nc[nH]c5cc4nc3-c3ccccc3)cc2)CC1 | 20.9 µM | 20.9 µM | 558 | 604 | 492
